US20040014187A1, “Bacterial carboxypeptidase cpg2 variants and their use in gene directed enzyme prodrug therapy” (priority 2000, published 2004)
Several values for one entry are separate records, joined by “and”; a condition that tells them apart may be missing. Equal entries are not always repeated. Where two headings read alike, the source gives them in different places.

Columns and labels:
SK-OV-3 cells [1] = conditions: SK-OV-3 clone expressing CPG2* (1.013 U/mg), previous study; read-out: IC50 for CMDA; cited from earlier work
[2] = patients, ADEPT trial; cited from earlier work
WiDr cells [3] = conditions: WiDr clone expressing CPG2*, previous study; read-out: IC50 for CMDA; cited from earlier work
WiDr cells [4] = experiment: Cytotoxicity of CMDA, [3H]-thymidine incorporation; format: cell-based, human
Description: (§1) Cytotoxicity and bystander cytotoxicity assays were performed as described previously (Marais et al (1996) Cancer Res. 56, 4735-4742). Briefly, for cytotoxicity assays, cells were grown to confluence and treated twice, once for an hour, immediately followed by an 18 h treatment, using increasing amounts of CMDA prodrug in DMEM/FCS. Cells were trypsinized and approximately 3% were replated and allowed to grow for a further 4 days, when uptake of [^3H]-thymidine was used to infer survival. For bystander assays, mixtures of cells expressing stCPG2(Q)3 and cells of the same lineage expressing β-galactosidase were treated with a single concentration of CMDA in the same two-stage treatment protocol, using 2 mM CMDA for WiDr and SK-OV-3 cells and 1 mM CMDA for A2780 cells.

A2780 cells [5] = experiment: Cytotoxicity of CMDA, [3H]-thymidine incorporation; format: cell-based, human
Description: as §1

SK-OV-3 cells [6] = experiment: Cytotoxicity of CMDA, [3H]-thymidine incorporation; format: cell-based, human
Description: as §1

A2780 cells [7] = conditions: A2780 clone expressing CPG2*, previous study; read-out: IC50 for CMDA; cited from earlier work
[8] = system: control cell lines expressing lacZ; experiment: Kinetics of cell death: toxicity of CMDA test concentrations to control cells; format: cell-based, human; conditions: 2 mM CMDA (WiDr, SK-OV-3) or 1 mM CMDA (A2780)
Description: To determine exposure times to CMDA required for the death of 50% of the cell populations, cell lines were plated at 3×10^5 cells per well in 6-well tissue culture plates, and allowed to grow to confluence. Tissue culture medium was replaced with 1 ml DMEM/FCS containing 2 mM CMDA (for WiDr and SK-OV-3 cell lines) or 1 mM CMDA (for A2780 cell lines). These concentrations are not toxic to control cell lines expressing lacZ. After 0.5, 1, 2, 4, 8, 12, and 16 h exposure, cells were trypsinized and approximately 3% were replated. After a further 4 d growth, cell survival was determined by [^3H]-thymidine incorporation (0.4 μCi/ml, 6h).

CS(=O)(=O)OCCN(CCCl)c1ccc(C(=O)N[C@@H](CCC(=O)O)C(=O)O)cc1 [CMDA, N-4-[(2-chloroethyl) (2-mesyloxyethyl)amino]benzoyl-L-glutamic acid]
IC50 (SK-OV-3 cells [1]): 258 µM | peak CMDA concentration in sera [2]: approximately 3 mM | IC50 (WiDr cells [3]): 277 µM | Differential cytotoxicity (fold) (WiDr cells [4]; WiDr clone W3 stCPG2(Q)3 versus lacZ): 32.3 fold | Differential cytotoxicity (fold) (WiDr cells [4]; WiDr clone W4 stCPG2(Q)3 versus lacZ): 22.0 fold | IC50 (WiDr cells [4]; WiDr clones expressing stCPG2(Q)3, read-out: IC50 for CMDA): 100 to 150 µM and 100 µM and 147 µM | IC50 (WiDr cells [4]; WiDr expressing lacZ (β-gal), read-out: IC50 (μM CMDA)): 3230 µM | IC50 (A2780 cells [5]; A2780 clone A3 expressing stCPG2(Q)3): 15.6 µM | Differential cytotoxicity (fold) (A2780 cells [5]; A2780 clone A3 stCPG2(Q)3 versus lacZ): 138 fold | IC50 (A2780 cells [5]; A2780 clone A4 expressing stCPG2(Q)3): 20.4 µM | Differential cytotoxicity (fold) (A2780 cells [5]; A2780 clone A4 stCPG2(Q)3 versus lacZ): 105 fold | increase in sensitivity compared to β-gal expressing cells (A2780 cells [5]; A2780 clones expressing stCPG2(Q)3): > 100 fold | IC50 (A2780 cells [5]; A2780 expressing lacZ (β-gal)): 2150 µM | Differential cytotoxicity (fold) (SK-OV-3 cells [6]; SK-OV-3 clone S2.34 CPG2* versus lacZ): 3.2 fold | IC50 (SK-OV-3 cells [6]; SK-OV-3 clone S2.34 expressing CPG2*, read-out: IC50 (μM CMDA)): 1290 µM | Differential cytotoxicity (fold) (SK-OV-3 cells [6]; SK-OV-3 clone S2.4 CPG2* versus lacZ): 1.3 fold | IC50 (SK-OV-3 cells [6]; SK-OV-3 clone S2.4 expressing CPG2*, read-out: IC50 (μM CMDA)): 3200 µM | IC50 (SK-OV-3 cells [6]; SK-OV-3 clone S5 expressing stCPG2(Q)3, read-out: IC50 (μM CMDA)): 216 µM | Differential cytotoxicity (fold) (SK-OV-3 cells [6]; SK-OV-3 clone S5 stCPG2(Q)3 versus lacZ): 19.4 fold | IC50 (SK-OV-3 cells [6]; SK-OV-3 clone S6 expressing stCPG2(Q)3, read-out: IC50 (μM CMDA)): 479 µM | Differential cytotoxicity (fold) (SK-OV-3 cells [6]; SK-OV-3 clone S6 stCPG2(Q)3 versus lacZ): 8.7 fold | IC50 (SK-OV-3 cells [6]; SK-OV-3 clone S7 expressing stCPG2(Q)3, read-out: IC50 (μM CMDA)): 544 µM | Differential cytotoxicity (fold) (SK-OV-3 cells [6]; SK-OV-3 clone S7 stCPG2(Q)3 versus lacZ): 7.7 fold | increase in sensitivity compared to β-gal expressing cells (SK-OV-3 cells [6]; SK-OV-3 clones expressing stCPG2(Q)3): 7-20 fold | IC50 (SK-OV-3 cells [6]; SK-OV-3 clones expressing stCPG2(Q)3, read-out: IC50 for CMDA): 216 to 544 µM | IC50 (SK-OV-3 cells [6]; SK-OV-3 expressing lacZ, read-out: IC50 (μM CMDA)): 4180 µM | IC50 (A2780 cells [7]): 23.2 µM | toxicity to control cell lines expressing lacZ [8]: not toxic
